What was measured:
[1] = test system: Protein-ss-Cys in plasma from a normal donor; experiment: Protein-ss-Cys in plasma treated with two physiologically relevant oxidants; design: species or system human; settings: 37° C. for 30 min, with increasing oxidant concentration
Procedure: A. Cys containing species in normal donors' plasma (n=6); B. Plasma from a nomal donor treated with hydrogen peroxide (H2O2) and hypochlorous acid (HOCl), two oxidants commonly released from activated cells and neutrophils of patients with oxidative stress. Plasma was reaction with the indicated concentration at 37° C. for 30 min and followed by methanol extraction and analysis by LC-MS/MS-MRM as described in Example 1.

[2] = test system: NAC, Cys species and GSH in plasma/whole blood/RBC; experiment: Time course of NAC, Cys containing species and GSH in plasma/whole blood from a patient with SCD before and after NAC treatment
Cys disulfides in plasma = experiment: Cys and Cys disulfide changes in plasma from a patient with SCD before and after NAC infusion (LC-MS/MS-MRM)
[3] = after NAC infusion for 1 hr at 150 mg/kg vs baseline

NAC level in plasma ([2]; 24 hr time point)	NAC half time ([2]; inferred from the 24 hr level)	Fraction of NAC oxidized ([2]; plasma, at 1 hr (right after NAC infusion))	NAC-ss-Cys mixed disulfide in plasma (Cys disulfides in plasma; after NAC infusion for 1 hr at 150 mg/kg)	Structure (SMILES)	Change of Protein-ss-Cys in plasma exposed to oxidant [1]	Increase of GSH level ([2]; 24 hr time point compared to before treatment)	Increase of free Cys in the red blood cell (RBC) fraction ([2]; RBC fraction, after NAC infusion vs before)	Free Cys in the red blood cell (RBC) fraction after NAC ([2]; RBC fraction, after NAC infusion, before 2.3 μM)	Change of free Cys in plasma ([2]; after NAC infusion vs Pre)	Change of p-ss-Cys ([2]; after NAC infusion vs Pre)	Change of total small molecular weight thiol (st-Cys) ([2]; after NAC infusion vs Pre)	Free Cys in whole blood after NAC ([2]; whole blood, after NAC infusion, before 13 μM)	Change of Cystine in plasma (Cys disulfides in plasma; [3])	Change of Protein-ss-Cys in plasma (Cys disulfides in plasma; [3])	Change of total Cys in plasma (Cys disulfides in plasma; [3])	Free Cys in plasma after NAC infusion (Cys disulfides in plasma; after NAC infusion for 1 hr at 150 mg/kg, baseline 7 μM)
				OO [H2O2, hydrogen peroxide]	increased											
				OCl [HOCl, hypochlorous acid]	increased											
almost not detectable	short	over 50%	Detection of NAC-ss-Cys	CC(=O)N[C@@H](CS)C(=O)O [NAC, N-Acetyl Cysteine]		13%	over 10 fold	31 µM	greatly increased	decreased sharply	greatly increased	170 µM	large decrease	large decrease	no significant changes	over 170 μM
